In the NIST ThermoML archive (doi:10.1021/je400885z):
Several values for one entry are separate records, joined by “and”; a condition that tells them apart may be missing. Equal entries are not always repeated. ± gives the expanded uncertainty stated by the source.

Settings: Liquid

Row | Compound | vapor or sublimation pressure (373.15 K) | vapor or sublimation pressure (423.15 K) | also measured
1 | COCC(C)O (stereo unspecified) [1-methoxy-2-propanol] | 50.45 ± 1.2 kPa and 48.26 ± 1.2 kPa and 48.55 ± 1.2 kPa | 232.13 ± 3 kPa [middle of 4 runs] | vapor or sublimation pressure (473.15 K): 739.81 ± 9.4 kPa
2 | NCCO [2-aminoethan-1-ol] | 6.16 ± 1 kPa and 6.17 ± 1 kPa and 6.64 ± 1 kPa | 50.62 ± 1.2 kPa and 52.71 ± 1.2 kPa and 51.97 ± 1.2 kPa | 
3 | O=Cc1ccco1 [2-furaldehyde] | 14.62 ± 1 kPa and 14.65 ± 1 kPa | 77.51 ± 1.4 kPa and 76.13 ± 1.4 kPa | 
4 | CC(C)(C)O [2-methylpropan-2-ol] | 192.46 ± 2.5 kPa and 191.18 ± 2.5 kPa | 818.16 ± 10 kPa and 816.37 ± 10 kPa | 
5 | C=CCO [2-propenol] | 113.1 ± 1.7 kPa and 109.94 ± 1.7 kPa and 109.95 ± 1.7 kPa | 520.67 ± 6.5 kPa and 518.64 ± 6.5 kPa and 518.11 ± 6.5 kPa | 
6 | CCCCO [butan-1-ol] |  |  | vapor or sublimation pressure (333.15 K): 8.39 ± 1 kPa; vapor or sublimation pressure (393.15 K): 110.26 ± 1.6 kPa
7 | CCCCOC(C)=O [butyl ethanoate] | 44.71 ± 1.2 kPa and 42.55 ± 1.1 kPa | 195.63 ± 2.5 kPa and 188.81 ± 2.4 kPa and 191.33 ± 2.5 kPa | vapor or sublimation pressure (473.15 K): 583.23 ± 7.3 kPa
8 | O=C=O [carbon dioxide] |  |  | vapor or sublimation pressure (248.15 K): 1672.6 ± 21 kPa; vapor or sublimation pressure (273.15 K): 3485.1 ± 43 kPa
9 | S=C=S [carbon disulfide] |  |  | vapor or sublimation pressure (248.15 K): 4.5 ± 1 kPa; vapor or sublimation pressure (273.15 K): 17.3 ± 1 kPa
10 | O=C=S [carbonyl sulfide] |  |  | vapor or sublimation pressure (248.15 K): 282.15 ± 3.6 kPa and 287.13 ± 3.7 kPa; vapor or sublimation pressure (273.15 K): 638.23 ± 8 kPa and 651.42 ± 8.2 kPa
11 | CCOC(C)=O [ethyl acetate] | 202.9 ± 2.6 kPa | 687.53 ± 8.6 kPa | 
12 | CCCCC [pentane] |  |  | vapor or sublimation pressure (333.15 K): 215.21 ± 2.8 kPa; vapor or sublimation pressure (393.15 K): 917.75 ± 11 kPa
